Experimental data from PubChem BioAssay (NCI).
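Where inhibition never reached the appropriate level, the endpoint shown equals the highest concentration tested. Otherwise, values were interpolated linearly from a five-concentration, 48-hour dose response in 96-well plates. At the TGI there is no net growth.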

How the values were obtained:
Test in all cases: growth of human tumour cells (NCI), 48 h
OVCAR-8 ovarian = system: OVCAR-8 ovarian
SF-295 CNS = system: SF-295 CNS
CAKI-1 renal = system: CAKI-1 renal
T-47D breast = system: T-47D breast
HCT-116 colon = system: HCT-116 colon
SK-MEL-28 melanoma = system: SK-MEL-28 melanoma
HCC-2998 colon = system: HCC-2998 colon
SNB-19 CNS = system: SNB-19 CNS
MDA-MB-231 breast = system: MDA-MB-231 breast
SW-620 colon = system: SW-620 colon
MCF7 breast = system: MCF7 breast
COLO 205 colon = system: COLO 205 colon
NCI-H460 lung = system: NCI-H460 lung
UACC-257 melanoma = system: UACC-257 melanoma
SF-268 CNS = system: SF-268 CNS
SK-OV-3 ovarian = system: SK-OV-3 ovarian
MDA-MB-435 = system: MDA-MB-435
SK-MEL-2 melanoma = system: SK-MEL-2 melanoma
RXF 393 renal = system: RXF 393 renal
LOX IMVI melanoma = system: LOX IMVI melanoma
OVCAR-4 ovarian = system: OVCAR-4 ovarian
OVCAR-3 ovarian = system: OVCAR-3 ovarian
SNB-75 CNS = system: SNB-75 CNS
PC-3 prostate = system: PC-3 prostate
NCI-H23 lung = system: NCI-H23 lung
UACC-62 melanoma = system: UACC-62 melanoma
HS 578T breast = system: HS 578T breast
OVCAR-5 ovarian = system: OVCAR-5 ovarian
DU-145 prostate = system: DU-145 prostate
EKVX NSCLC = system: EKVX NSCLC
KM12 colon = system: KM12 colon
NCI-H522 lung = system: NCI-H522 lung
SR leukemia = system: SR leukemia
RPMI-8226 leukemia = system: RPMI-8226 leukemia
ACHN renal = system: ACHN renal
MALME-3M melanoma = system: MALME-3M melanoma
UO-31 renal = system: UO-31 renal
SK-MEL-5 melanoma = system: SK-MEL-5 melanoma
HOP-62 NSCLC = system: HOP-62 NSCLC
SF-539 CNS = system: SF-539 CNS
MOLT-4 leukemia = system: MOLT-4 leukemia
U251 CNS = system: U251 CNS
TK-10 renal = system: TK-10 renal
A498 renal = system: A498 renal
BT-549 breast = system: BT-549 breast
K-562 leukemia = system: K-562 leukemia
CCRF-CEM leukemia = system: CCRF-CEM leukemia
M14 melanoma = system: M14 melanoma
786-0 renal = system: 786-0 renal
A549 NSCLC = system: A549 NSCLC
MDA-N = system: MDA-N
NCI/ADR-RES ovarian = system: NCI/ADR-RES ovarian
SN12C renal = system: SN12C renal
HL-60(TB) leukemia = system: HL-60(TB) leukemia
IGROV1 ovarian = system: IGROV1 ovarian
HCT-15 colon = system: HCT-15 colon
HOP-92 NSCLC = system: HOP-92 NSCLC
HT29 colon = system: HT29 colon
NCI-H226 lung = system: NCI-H226 lung

## CC(=O)OC[C@@H](OC(C)=O)[C@H](OC(C)=O)[C@@H]1OC(C)(C)O[C@@H]1C1SCCCS1
OVCAR-8 ovarian
  TGI: > 100 µM
SF-295 CNS
  TGI: > 100 µM
CAKI-1 renal
  TGI: > 100 µM
T-47D breast
  TGI: > 100 µM
HCT-116 colon
  TGI: > 100 µM
SK-MEL-28 melanoma
  TGI: > 100 µM
HCC-2998 colon
  TGI: > 100 µM
SNB-19 CNS
  TGI: > 100 µM
MDA-MB-231 breast
  TGI: > 100 µM
SW-620 colon
  TGI: > 100 µM
MCF7 breast
  TGI: > 100 µM
COLO 205 colon
  TGI: > 100 µM
NCI-H460 lung
  TGI: > 100 µM
UACC-257 melanoma
  TGI: > 100 µM
SF-268 CNS
  TGI: > 100 µM
SK-OV-3 ovarian
  TGI: > 100 µM
MDA-MB-435
  TGI: > 100 µM
SK-MEL-2 melanoma
  TGI: > 100 µM
RXF 393 renal
  TGI: > 100 µM
LOX IMVI melanoma
  TGI: > 100 µM
OVCAR-4 ovarian
  TGI: > 100 µM
OVCAR-3 ovarian
  TGI: > 100 µM
SNB-75 CNS
  TGI: > 100 µM
PC-3 prostate
  TGI: > 100 µM
NCI-H23 lung
  TGI: > 100 µM
UACC-62 melanoma
  TGI: > 100 µM
HS 578T breast
  TGI: > 100 µM
OVCAR-5 ovarian
  TGI: > 100 µM
DU-145 prostate
  TGI: > 100 µM
EKVX NSCLC
  TGI: > 100 µM
KM12 colon
  TGI: > 100 µM
NCI-H522 lung
  TGI: > 100 µM
SR leukemia
  TGI: > 100 µM
RPMI-8226 leukemia
  TGI: > 100 µM
ACHN renal
  TGI: > 100 µM
MALME-3M melanoma
  TGI: > 100 µM
UO-31 renal
  TGI: > 100 µM
SK-MEL-5 melanoma
  TGI: > 100 µM
HOP-62 NSCLC
  TGI: > 100 µM
SF-539 CNS
  TGI: > 100 µM
MOLT-4 leukemia
  TGI: > 100 µM
U251 CNS
  TGI: > 100 µM
TK-10 renal
  TGI: > 100 µM
A498 renal
  TGI: > 100 µM
BT-549 breast
  TGI: > 100 µM
K-562 leukemia
  TGI: > 100 µM
CCRF-CEM leukemia
  TGI: > 100 µM
M14 melanoma
  TGI: > 100 µM
786-0 renal
  TGI: > 100 µM
A549 NSCLC
  TGI: > 100 µM
MDA-N
  TGI: > 100 µM

## O=C(N/N=C1/C(=O)c2c3ccccc3cc3cccc1c23)c1ccccc1
OVCAR-8 ovarian
  TGI: > 92.3 µM
SF-295 CNS
  TGI: 52.2 µM
CAKI-1 renal
  TGI: 70.1 µM
T-47D breast
  TGI: 42 µM
HCT-116 colon
  TGI: > 84.8 µM
SK-MEL-28 melanoma
  TGI: > 95.6 µM
SNB-19 CNS
  TGI: > 100 µM
MDA-MB-231 breast
  TGI: > 100 µM
NCI/ADR-RES ovarian
  TGI: > 100 µM
SW-620 colon
  TGI: > 100 µM
MCF7 breast
  TGI: > 77.1 µM
COLO 205 colon
  TGI: > 100 µM
NCI-H460 lung
  TGI: > 100 µM
UACC-257 melanoma
  TGI: > 100 µM
SF-268 CNS
  TGI: > 91.9 µM
SK-OV-3 ovarian
  TGI: 75 µM
SN12C renal
  TGI: > 100 µM
MDA-MB-435
  TGI: > 86.7 µM
SK-MEL-2 melanoma
  TGI: > 94 µM
RXF 393 renal
  TGI: 56.3 µM
LOX IMVI melanoma
  TGI: > 100 µM
OVCAR-4 ovarian
  TGI: 44.2 µM
OVCAR-3 ovarian
  TGI: > 100 µM
SNB-75 CNS
  TGI: 74.9 µM
PC-3 prostate
  TGI: > 84.1 µM
NCI-H23 lung
  TGI: > 100 µM
HL-60(TB) leukemia
  TGI: > 100 µM
IGROV1 ovarian
  TGI: 85.5 µM
HCT-15 colon
  TGI: > 100 µM
UACC-62 melanoma
  TGI: > 78.1 µM
HS 578T breast
  TGI: > 73.2 µM
OVCAR-5 ovarian
  TGI: > 100 µM
DU-145 prostate
  TGI: > 56.4 µM
EKVX NSCLC
  TGI: > 100 µM
KM12 colon
  TGI: > 31.6 µM
NCI-H522 lung
  TGI: > 100 µM
SR leukemia
  TGI: > 100 µM
HOP-92 NSCLC
  TGI: > 100 µM
RPMI-8226 leukemia
  TGI: > 100 µM
ACHN renal
  TGI: > 67.4 µM
HT29 colon
  TGI: > 87.9 µM
MALME-3M melanoma
  TGI: 68.5 µM
UO-31 renal
  TGI: > 100 µM
SK-MEL-5 melanoma
  TGI: > 63.2 µM
HOP-62 NSCLC
  TGI: 40.3 µM
SF-539 CNS
  TGI: > 100 µM
MOLT-4 leukemia
  TGI: > 100 µM
U251 CNS
  TGI: 98.3 µM
TK-10 renal
  TGI: 78.5 µM
A498 renal
  TGI: > 57.4 µM
BT-549 breast
  TGI: > 100 µM
K-562 leukemia
  TGI: > 100 µM
CCRF-CEM leukemia
  TGI: > 100 µM
M14 melanoma
  TGI: > 100 µM
786-0 renal
  TGI: 43.1 µM
A549 NSCLC
  TGI: > 100 µM
NCI-H226 lung
  TGI: > 66.6 µM
MDA-N
  TGI: > 100 µM
